Tests used:
[1] = system: C57BL/6 (WT), TLR2−/−, IL-15−/− and IL-15Rα−/− mice with EAE; test: EAE induced with MOG35-55 in CFA plus pertussis toxin; clinical grading; format: in vivo, mouse; settings: for Mean Day of Onset of EAE / Mean Maximum Severity of EAE / Mean Incidence of disease: PE DHC; for Mean Maximum Severity of EAE: 20-day observation; for MDD (Mean Daily Disease) / CDI (cumulative disease index): PE DHC 250 ng single i.p. Day 0; for MDD (Mean Daily Disease): 20 days; for CDI (cumulative disease index): through Day 20
Method: […]. In addition, mice were injected intraperitoneally (i.p.) on Day 0 with either P. gingivalis lipid or the vehicle control, 70% ethanol (EtOH). EAE was scored as: Grade 1-tail paralysis; Grade 2-weakness of hind limbs with an altered gait; Grade 3-hind limb paralysis; Grade 4-front limb paralysis; Grade 5-death.
For treatment of mice, preweighed lipids were dissolved in 70% ethanol to achieve a final concentration of 125 ng/μl, and sonicated for 2.5 minutes immediately before injection into experimental animals. This preparation was also used for drying lipids onto tissue culture wells. For direct addition to cell cultures, the lipids were dissolved in culture medium at 125 ng/μl and sonicated for 2.5 minutes to produce a liposome preparation for administration to cells in culture.
The cumulative disease index (CDI) was obtained by summing the daily average disease scores through Day 20. A mean of these daily disease scores (Mean Daily Disease) (+/−SEM) was calculated based on the 20 days of observation. The Mean Daily Disease scores were compared using the Wilcoxin Signed Rank tests for two samples. Disease incidence frequencies were compared using Chi square analysis. Values for mean maximum severity of EAE were compared using the Wilcoxin Signed Rank test. Values for mean day of onset of EAE were compared using the Student's t-test. For analysis of spinal cord populations, percentages were compared using Student's t test. Bacterial fatty acid levels in brain lipid extracts for each treatment group were evaluated using least squares linear regression analysis that included calculation of correlation coefficients. For each dose of bacterial lipid administered, linear regression analysis compared the final EAE score with the mean bacterial fatty acid recovered per 0.5 mg of brain lipid extract. The mean bacterial fatty acid levels were calculated from three replicate brain lipid determinations.
EAE was induced in female C57BL/6 (WT) mice and these mice were also injected i.p. on Day 0 with either P. gingivalis lipids or the vehicle control, 70% ethanol (EtOH). To most effectively detect effects of P. gingivalis lipids in the development of autoimmunity, less severe EAE was induced by using CFA with […] concentrations of H37RA mycobacteria (500 μg/mouse). […] Component HPLC fractions of the TL were examined individually. […] FIG. 7 illustrates one representative experiment of six similar studies, in which 250 ng of PE DHC was administered to WT mice.
Mice deficient in either IL-15 (IL-15^−/− mice) or the IL-15 receptor α (IL-15Rα^−/− mice) are known to express very few identifiable NKT cells (Kennedy et al. “Reversible defects in natural killer and memory CD8 T cell lineages in interleukin 15-deficient mice,” J. Exp. Med. 191:771-780 (2000); Lodolce et al. “IL-15 receptor maintains lymphoid homeostasis by supporting lymphocyte homing and proliferation” Immunity 9:669-676 (1998). WT mice and either IL-15^−/− or IL-15Rα^−/− mice (both on a C57BL/6 background) were immunized for EAE and given a single i.p. injection of EtOH or PE DHC on Day 0. […] FIGS. 8 and 9 show representative experiments using IL-15^−/− and IL-15Rα^−/− mice.
TLR-2 deficient (TLR2^−/−) mice were immunized with the standard EAE-inducing MOG protocol and administered a single i.p. injection of either EtOH or PE DHC on Day 0.

bone marrow DCs (BMDCs) = test: Stimulation of bone marrow dendritic cells, IL-6 ELISA and surface activation markers; format: cell-based, mouse; settings: for IL-6 secretion: plate-bound LPS 1 μg, MMP 10 μg, PE DHC 2.5 μg, 18 hrs
Method: Bone marrow cells from C57BL/6 and TLR2^−/− mice were cultured at 2×10^5 cells/ml in RPMI containing 10% FCS, 2-ME, and 20 ng/ml recombinant murine GM-CSF for 9 days. Bone marrow DCs (BMDCs) were harvested at Day 9 and were greater than 80% CD11c+. LPS (1 μg), MMP (10 μg) (a bacterial lipoprotein and known TLR-2 ligand (Bachem H-9460), PE DHC (2.5 μg) or 70% EtOH, all in 20 ul volumes, were allowed to dry in the wells of a 24-well plate overnight prior to the addition of BMDCs. BMDCs were cultured in the ligand-bound 24-well plates at 1×10^6 cells/ml in RPMI containing GM-CSF. After 18 hrs, culture supernatants were harvested and tested for IL-6 via ELISA.
The effects of PE DHC on antigen presenting cell (APC) activation in vitro were examined Dendritic cells (BMDCs) (>85% CD11c+) were derived from the bone marrow of WT or TLR2^−/− mice and cultured either alone or with EtOH, LPS, MMP (a TLR2 ligand), or PE DHC. After 18 hrs supernatants were assayed for IL-6. […] BMDCs were also assayed for expression of the surface activation markers B7.2 and MHC class II.

[2] = IL-15Rα−/− mice that developed EAE
[3] = IL-15−/− mice that developed EAE
[4] = TLR2−/− mice that developed EAE
[5] = Wild Type mice that developed EAE

For “phosphoethanolamine dihydroceramide [PE DHC]”, the “Mean Day of Onset of EAE” value [1, 2] was 13.8 days, the “Mean Maximum Severity of EAE” value [1, 2] was 2.9 and the “Mean Incidence of disease” value ([1]; IL-15Rα−/− mice) was 100%. For the same substance, the “MDD (Mean Daily Disease)” value ([1]; IL-15Rα−/− mice) was 0.9, the “CDI (cumulative disease index)” value ([1]; IL-15Rα−/− mice) was 18.7 and the “CDI and mean daily disease compared with EtOH-treated mice” value ([1]; IL-15−/− and IL-15Rα−/− mice) was “greater than a doubling”. For the same substance, the “Effect on EAE” value ([1]; IL-15−/− and IL-15Rα−/− mice, single i.p. injection Day 0) was “significantly enhanced EAE”, the “Mean Day of Onset of EAE” value [1, 3] was 13.0 days and the “Mean Maximum Severity of EAE” value [1, 3] was 3.7. For the same substance, the “Mean Incidence of disease” value ([1]; IL-15−/− mice) was 90%, the “MDD (Mean Daily Disease)” value ([1]; IL-15−/− mice) was 1.2 and the “CDI (cumulative disease index)” value ([1]; IL-15−/− mice) was 24.5. The “Mean Day of Onset of EAE” value [1, 4] was 14.7 days, the “Mean Maximum Severity of EAE” value [1, 4] was 2.9 and the “Mean Incidence of disease” value ([1]; TLR2−/− mice) was 46.6%. The “MDD (Mean Daily Disease)” value ([1]; TLR2−/− mice) was 0.4, the “CDI (cumulative disease index)” value ([1]; TLR2−/− mice) was 8.3 and the “Effect on CDI and mean daily disease” value ([1]; TLR2−/− mice, single i.p. injection Day 0) was “did not mediate enhancement of CDI or mean daily disease”. For the same substance, the “CDI and mean daily disease compared with EtOH-treated mice” value ([1]; WT mice, 250 ng, cumulative results of six experiments) was “essentially a doubling”, the “Effect on EAE disease” value ([1]; WT mice, 2.5 μg, 250 ng and 25 ng, 250 ng most efficient) was “led to enhanced disease” and the “Onset of disease compared to EtOH-treated mice” value ([1]; WT mice, p=0.008) was “significantly earlier onset of disease”. The “Effect on severity of EAE” value ([1]; WT mice, single 250 ng i.p. injection on Day 0) was “consistently enhanced the severity of EAE”, the “Mean Day of Onset of EAE” value [1, 5] was 12.1 days and the “Mean Maximum Severity of EAE” value [1, 5] was 3.6. The “Mean Incidence of disease” value ([1]; Wild Type mice) was 75%, the “MDD (Mean Daily Disease)” value ([1]; Wild Type mice) was 1.0 and the “CDI (cumulative disease index)” value ([1]; Wild Type mice) was 19.8. The IL-6 secretion (bone marrow DCs (BMDCs); TLR2−/− BMDCs) was “did not result in IL-6 secretion”, the IL-6 secretion (bone marrow DCs (BMDCs); WT BMDCs) was “levels of IL-6 secretion that were almost equivalent to that seen with LPS” and the “Expression of surface activation markers B7.2 and MHC class II” value (bone marrow DCs (BMDCs); WT and TLR2−/− BMDCs) was “increased MHC II and B7.2 expression on WT but not TLR2^−/− BMDCs”.

Source: patent US20160084855A1, “Compositions and Methods for Modulation and Detection of Immune and Inflammatory Responses” (UNIVERSITY OF CONNECTICUT, priority 2013, published 2016)
